According to patent US11918575B2, “PZA and cytochrome Bc1 inhibitor combination treatment” (priority 2017, dated 2024):
Values after ≈ are worked out from the molar mass of the structure shown.

Assays:
[1] = system: Mycobacterium tuberculosis H37Rv; experiment: Mouse tuberculosis infection model, CFU counts in the lungs after treatment; format: in vivo; conditions: female Swiss mice infected i.v. with H37Rv; oral once daily 5 times/week for 4 weeks (day 12-37); necropsy day 41; BDQ 3 mg/kg, Q203 or Cpd X 20 mg/kg, PZA 150 mg/kg; cut off 1.10 = below detectable level
[2] = system: M. tuberculosis; conditions: cited from earlier work
[3] = system: M. tuberculosis H37Rv; conditions: strain M. tuberculosis H37Rv, inside macrophages; cited from earlier work
[4] = format: physicochemical
Experimental: All formulations prepared in 20% HP-β-CD, and used for 5 treatments (one week).
All formulations were solutions and stored at 4° C. during the study.
Stability of BDQ and Q203 in formulation was previously tested, for PZA and Cpd X the stability was tested after one week and found acceptable for both compounds

Q: For `COc1nc2ccc(Br)cc2cc1[C@@H](c1ccccc1)[C@@](O)(CCN(C)C)c1cccc2ccccc12` [BDQ, Bedaquiline], which “mean log10 (CFUs in the lungs)” value [1] is on record?
A: 4.46 log10

Q: Which “activity against replicating and non-replicating bacteria” value [2] does the source give for `CCc1nc2ccc(Cl)cn2c1C(=O)NCc1ccc(N2CCC(c3ccc(OC(F)(F)F)cc3)CC2)cc1` [Q203] here?
A: highly active

Q: And the “mean log10 (CFUs in the lungs)” value [1]?
A: 4.55 log10

Q: What about the MIC50 [3] of the same compound?
A: 0.28 nM (≈ 0.156 ng/mL)

Q: Which results are given for `NC(=O)c1cnccn1` [PZA, Pyrazinamide]?
A: mean log10 (CFUs in the lungs) [1]: 3.47 log10; stability in formulation [4]: acceptable

Q: What does the source list for `CCc1nc2ccc(Cl)cn2c1C(=O)NCc1ccc(N2CC3(CCN(c4ccc(OC(F)(F)F)cc4)CC3)C2)cc1` [Cpd X]?
A: mean log10 (CFUs in the lungs) [1]: 4.75 log10; stability in formulation [4]: acceptable
